We go through 19 compounds from US10590105B2, “1,3-dihydroxy-phenyl derivatives useful as immunomodulators” (BRISTOL-MYERS SQUIBB COMPANY, priority 2016, dated 2020).

This assay addresses PD-1/PD-L1 interaction (PD-1-Ig / PD-L1-His) (Homo sapiens (Human), UniProt Q9NZQ7). The assay can be described thus: PD-1/PD-L1 Homogenous Time-Resolved Fluorescence (HTRF) binding assay. The following applies: PD-1/PD-L1 HTRF binding assay, read-out: Range or IC50. An excerpt: The ability of the compounds of formula (I) to bind to PD-L1 was investigated using a PD-1/PD-L1 Homogenous Time-Resolved Fluorescence (HTRF) binding assay.
Homogenous Time-Resolved Fluorescence (HTRF) Binding Assay.
The interaction of PD-1 and PD-L1 can be assessed using soluble, purified preparations of the extracellular domains of the two proteins. The PD-1 and PD-L1 protein extracellular domains were expressed as fusion proteins with detection tags, for PD-1, the tag was the Fc portion of Immunoglobulin (PD-1-Ig) and for PD-L1 it was the 6 histidine motif (PD-L1-His). All binding studies were performed in an HTRF assay buffer consisting of dPBS supplemented with 0.1% […] bovine serum albumin and 0.05% (v/v) Tween-20. For the h/PD-L1-His binding assay, inhibitors were pre-incubated with PD-L1-His (10 nM final) for 15 m in 4 μl of assay buffer, followed by addition of PD-1-Ig (20 nM final) in 1 μl of assay buffer and further incubation for 15 m. HTRF detection was achieved using europium crypate-labeled anti-Ig (1 nM final) and allophycocyanin (APC) labeled anti-His (20 nM final). Antibodies were diluted in HTRF detection buffer and 5 μl was dispensed on top of the binding reaction. The reaction mixture was allowed to equilibrate for 30 minutes and the resulting signal (665 nm/620 nm ratio) was obtained using an EnVision fluorometer. Additional binding assays were established between the human proteins PD-1-Ig/PD-L2-His (20 & 5 nM, respectively) and CD80-His/PD-L1-Ig (100 & 10 nM, respectively).
Recombinant Proteins. Human PD-1 (25-167) with a C-terminal human Fc domain of immunoglobulin G (Ig) epitope tag [hPD-1 (25-167)-3S-IG] and human PD-L1 (18-239) with a C-terminal His epitope tag [hPD-L1(18-239)-TVMV-His] were expressed in HEK293T cells and purified sequentially by ProteinA affinity chromatography and size exclusion chromatography. Human PD-L2-His and CD80-His was obtained through commercial sources.
Ranges are as follows: A=0.001 to 0.010 micromolar; B=0.011 to 0.150 micromolar; C=0.151 to 10 micromolar.

Structures are written as SMILES. Like-named read-outs stand apart in the source and are kept apart here.

PD-1/PD-L1 interaction (PD-1-Ig / PD-L1-His), sequence (Q9NZQ7 other isoform, or with tags, fused parts or gaps): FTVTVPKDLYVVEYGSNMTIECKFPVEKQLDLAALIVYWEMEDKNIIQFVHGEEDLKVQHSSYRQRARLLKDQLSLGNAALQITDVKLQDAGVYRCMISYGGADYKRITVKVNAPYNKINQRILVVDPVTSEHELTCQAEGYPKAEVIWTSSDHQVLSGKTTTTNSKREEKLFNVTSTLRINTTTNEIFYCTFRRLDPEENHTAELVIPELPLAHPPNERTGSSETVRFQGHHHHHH

For the compound `Cc1c(COc2cc(OCc3cncc(C#N)c3)c(CN3CCC[C@@]3(C)C(=O)O)cc2Cl)cccc1-c1ccc2ccoc2c1` [Example 1020, (S)-1-(4-((3-(benzofuran-6-yl)-2-methylbenzyl)oxy)-5-chloro-2-((5-cyanopyridin-3-yl)methoxy)benzyl)-2-methylpyrrolidine-2-carboxylic acid], the IC50 (value given as range class) was 1 to 10 nM.

Regarding `Cc1c(COc2cc(OCc3cncc(C#N)c3)c(CN[C@](C)(CO)C(=O)O)cc2Cl)cccc1-c1ccc2scnc2c1` [Example 1021, (R)-2-((4-((3-(benzo[d]thiazol-5-yl)-2-methylbenzyl)oxy)-5-chloro-2-((5-cyanopyridin-3-yl)methoxy)benzyl)amino)-3-hydroxy-2-methylpropanoic acid], the IC50 (value given as range class) is 1 to 10 nM.

On to `Cc1c(COc2cc(OCc3cncc(C#N)c3)c(CNC(C)(C)C(=O)O)cc2Cl)cccc1-c1ccc2scnc2c1` [Example 1022, 2-((4-((3-(benzo[d]thiazol-5-yl)-2-methylbenzyl)oxy)-5-chloro-2-((5-cyanopyridin-3-yl)methoxy)benzyl)amino)-2-methylpropanoic acid], for which the IC50 (value given as range class) was in the range of 11 to 150 nM.

Take `Cc1c(COc2cc(OCc3cncc(C#N)c3)c(CN3CCC[C@@]3(C)C(=O)O)cc2Cl)cccc1-c1ccc2scnc2c1` [Example 1023, (S)-1-(4-((3-(benzo[d]thiazol-5-yl)-2-methylbenzyl)oxy)-5-chloro-2-((5-cyanopyridin-3-yl)methoxy)benzyl)-2-methylpyrrolidine-2-carboxylic acid]: the IC50 (value given as range class) was in the range of 11 to 150 nM.

Consider `Cc1c(COc2cc(OCc3cncc(C#N)c3)c(CN[C@](C)(CO)C(=O)O)cc2Cl)cccc1-c1ccc2[nH]cnc2c1` [Example 1024, (R)-2-((4-((3-(1H-benzo[d]imidazol-5-yl)-2-methylbenzyl)oxy)-5-chloro-2-((5-cyanopyridin-3-yl)methoxy)benzyl)amino)-3-hydroxy-2-methylpropanoic acid], for which the IC50 (value given as number) was found to be 135 nM.

Turning to `Cc1c(COc2cc(OCc3cncc(C#N)c3)c(CN[C@H](CO)C(=O)O)cc2Cl)cccc1-c1ccc2c(c1)ncn2CCN(C)C` [Example 1025, (R)-2-((5-chloro-2-((5-cyanopyridin-3-yl)methoxy)-4-((3-(1-(2-(dimethylamino)ethyl)-1H-benzo[d]imidazol-6-yl)-2-methylbenzyl)oxy)benzyl)amino)-3-hydroxypropanoic acid and (R)-2-((5-chloro-2-((5-cyanopyridin-3-yl)methoxy)-4-((3-(1-(2-(dimethylamino)ethyl)-1H-benzo[d]imidazol-5-yl)-2-methylbenzyl)oxy)benzyl)amino)-3-hydroxypropanoic acid], the IC50 (value given as range class) fell in the range of 151 to 10000 nM.

`Cc1c(COc2cc(OCc3cncc(C#N)c3)c(C=O)cc2Cl)cccc1-c1ccc2oc(CCN3CC[C@@H](O)C3)nc2c1` [Example 1027, (R)-5-((4-chloro-2-formyl-5-((3-(2-(2-(3-hydroxypyrrolidin-1-yl)ethyl)benzo[d]oxazol-5-yl)-2-methylbenzyl)oxy)phenoxy)methyl)nicotinonitrile]: the IC50 (value given as range class) lay within 151 to 10000 nM.

As to `Cc1c(COc2cc(OCc3cncc(C#N)c3)c(CN[C@](C)(CO)C(=O)O)cc2Cl)cccc1-c1ccc2oc(CCN3CC[C@@H](O)C3)nc2c1` [Example 1028, (R)-2-((5-chloro-2-((5-cyanopyridin-3-yl)methoxy)-4-((3-(2-(2-((R)-3-hydroxypyrrolidin-1-yl)ethyl)benzo[d]oxazol-5-yl)-2-methylbenzyl)oxy)benzyl)amino)-3-hydroxy-2-methylpropanoic acid], where the note is “value given as range class”, the IC50 fell in the range of 1 to 10 nM.

For the compound `Cc1c(COc2cc(OCc3cncc(C#N)c3)c(CN3CCCC[C@H]3C(=O)O)cc2Cl)cccc1-c1ccc2oc(CCN3CC[C@@H](O)C3)nc2c1` [Example 1029, (S)-1-(5-chloro-2-((5-cyanopyridin-3-yl)methoxy)-4-((3-(2-(2-((R)-3-hydroxypyrrolidin-1-yl)ethyl)benzo[d]oxazol-5-yl)-2-methylbenzyl)oxy)benzyl)piperidine-2-carboxylic acid], the IC50 (value given as range class) lay in the range of 1 to 10 nM.

For `Cc1c(COc2cc(OCc3cncc(C#N)c3)c(CN3CCCC[C@H]3C(=O)O)cc2Cl)cccc1-c1cccc(OCCCN2CC[C@@H](O)C2)n1` [Example 1030, (S)-1-(5-chloro-2-((5-cyanopyridin-3-yl)methoxy)-4-((3-(6-(3-((R)-3-hydroxypyrrolidin-1-yl)propoxy)pyridin-2-yl)-2-methylbenzyl)oxy)benzyl)piperidine-2-carboxylic acid], the IC50 (value given as range class) fell in the range of 151 to 10000 nM.

Take `Cc1c(COc2cc(OCc3cncc(C#N)c3)c(CO)cc2Cl)cccc1-c1cccc(OCCCN2CC[C@@H](O)C2)n1` [Example 1031, (R)-5-((4-chloro-2-(hydroxymethyl)-5-((3-(6-(3-(3-hydroxypyrrolidin-1-yl)propoxy)pyridin-2-yl)-2-methylbenzyl)oxy)phenoxy)methyl)nicotinonitrile]: the IC50 (value given as range class) was in the range of 151 to 10000 nM.

Consider `Cc1c(COc2cc(OCc3cncc(C#N)c3)c(CN3CCCC[C@H]3C(=O)O)cc2Cl)cccc1-c1ccc2nccnc2c1` [Example 1032, (S)-1-(5-chloro-2-((5-cyanopyridin-3-yl)methoxy)-4-((2-methyl-3-(quinoxalin-6-yl)benzyl)oxy)benzyl)piperidine-2-carboxylic acid], for which, where the note is “value given as range class”, the IC50 lay within 11 to 150 nM.

With `Cc1c(COc2cc(OCc3cncc(C#N)c3)c(CN3CCCC[C@@H]3C(=O)O)cc2Cl)cccc1-c1ccc2nccnc2c1` [Example 1033, (R)-1-(5-chloro-2-((5-cyanopyridin-3-yl)methoxy)-4-((2-methyl-3-(quinoxalin-6-yl)benzyl)oxy)benzyl)piperidine-2-carboxylic acid], for the setting “value given as range class”, the IC50 lay within 11 to 150 nM.

Consider `Cc1c(COc2cc(OCc3cncc(C#N)c3)c(CN[C@H](CO)C(=O)O)cc2Cl)cccc1-c1ccc2nccnc2c1` [Example 1034, (R)-2-((5-chloro-2-((5-cyanopyridin-3-yl)methoxy)-4-((2-methyl-3-(quinoxalin-6-yl)benzyl)oxy)benzyl)amino)-3-hydroxypropanoic acid], for which the IC50 (value given as range class) was 1 to 10 nM.

Consider `Cc1c(COc2cc(OCc3cncc(C#N)c3)c(CN[C@](C)(CO)C(=O)O)cc2Cl)cccc1-c1ccc2nccnc2c1` [Example 1035, (R)-2-((5-chloro-2-((5-cyanopyridin-3-yl)methoxy)-4-((2-methyl-3-(quinoxalin-6-yl)benzyl)oxy)benzyl)amino)-3-hydroxy-2-methylpropanoic acid], for which the IC50 (value given as range class) lay in the range of 1 to 10 nM.

Regarding `Cc1c(COc2cc(OCc3cncc(C#N)c3)c(CN[C@@](C)(CO)C(=O)O)cc2Cl)cccc1-c1ccc2nccnc2c1` [Example 1036, (S)-2-((5-chloro-2-((5-cyanopyridin-3-yl)methoxy)-4-((2-methyl-3-(quinoxalin-6-yl)benzyl)oxy)benzyl)amino)-3-hydroxy-2-methylpropanoic acid], the IC50 (value given as range class) fell in the range of 1 to 10 nM.

Regarding `Cc1c(COc2cc(OCc3cncc(C#N)c3)c(CN[C@@](C)(CO)C(=O)O)cc2Cl)cccc1-c1cccn(CCCN2CC[C@@H](O)C2)c1=O` [Example 1037, (S)-2-((5-chloro-2-((5-cyanopyridin-3-yl)methoxy)-4-((3-(1-(3-((R)-3-hydroxypyrrolidin-1-yl)propyl)-2-oxo-1,2-dihydropyridin-3-yl)-2-methylbenzyl)oxy)benzyl)amino)-3-hydroxy-2-methylpropanoic acid], the IC50 (value given as range class) lay within 151 to 10000 nM.

Consider `Cc1c(COc2cc(OCc3cncc(C#N)c3)c(CN[C@](C)(CO)C(=O)O)cc2Cl)cccc1-c1cccn(CCCN2CC[C@@H](O)C2)c1=O` [Example 1038, (R)-2-((5-chloro-2-((5-cyanopyridin-3-yl)methoxy)-4-((3-(1-(3-((R)-3-hydroxypyrrolidin-1-yl)propyl)-2-oxo-1,2-dihydropyridin-3-yl)-2-methylbenzyl)oxy)benzyl)amino)-3-hydroxy-2-methylpropanoic acid], for which the IC50 (value given as range class) lay in the range of 151 to 10000 nM.

Regarding `Cc1c(COc2cc(OCc3cncc(C#N)c3)c(CN3CCCC[C@H]3C(=O)O)cc2Cl)cccc1-c1cccn(CCCN2CC[C@@H](O)C2)c1=O` [Example 1039, (S)-1-(5-chloro-2-((5-cyanopyridin-3-yl)methoxy)-4-((3-(1-(3-((R)-3-hydroxypyrrolidin-1-yl)propyl)-2-oxo-1,2-dihydropyridin-3-yl)-2-methylbenzyl)oxy)benzyl)piperidine-2-carboxylic acid], the IC50 (value given as range class) lay in the range of 151 to 10000 nM.
